This assay concerns the target Cathepsin S (Homo sapiens, UniProt P25774). The experiment in a line: Cathepsin S inhibition, fluorogenic peptide substrate kinetic assay. The class given is biochemical. The following applies: Table II; Cathepsin S inhibition constant, pH5.5; read-out: Ki Cat. S. In outline:
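Reactions were started with 50 μM (final) acetyl-His-Pro-Val-Lys-aminocarbamoylcoumarin, and hydrolysis was followed by fluorescence (ex 380/em 450 nm). Apparent inhibition constants from enzyme progress curves were converted to Ki for competitive inhibitors using substrate concentration and Km.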

Some results are limits rather than exact numbers.

The results in this text go back to patent publication US20040248887A1, “Inhibitors of cathepsin S” (IRM LLC, priority 2003, published 2004).

Sequence of Cathepsin S (P25774 115-331, species assumed): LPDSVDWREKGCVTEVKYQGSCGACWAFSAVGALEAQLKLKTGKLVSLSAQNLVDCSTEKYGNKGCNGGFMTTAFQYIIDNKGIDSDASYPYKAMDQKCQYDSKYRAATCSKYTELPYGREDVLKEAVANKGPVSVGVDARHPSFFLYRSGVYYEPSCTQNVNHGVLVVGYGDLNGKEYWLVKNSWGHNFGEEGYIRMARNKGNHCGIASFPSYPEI

For the compound `Cc1cc(NC[C@H](C)NC(=O)[C@H](CC2CCCCC2)NC(=O)c2ccc(-c3cccc(F)c3)o2)on1` [Compound 247, 5-(3-Fluoro-phenyl)-furan-2-carboxylic acid {2-cyclohexyl-1-(S)-[1-(S)-methyl-2-(3-methyl-isoxazol-5-ylamino)-ethylcarbamoyl]-ethyl}-amide], the inhibitory constant (Ki) (in general, the dissociation constant of the complex between target and ligand, obtained from inhibition or displacement) was less than 1 µM.

For `CC(C(=O)N[C@@H](CC1CCCCC1)C(=O)NCCN1CCc2cc(F)ccc21)c1ccc(F)cc1` (stereo partly drawn) [Compound 62, N-{2-cyclohexyl-1-(S)-[2-(5-fluoro-2,3-dihydro-indol-1-yl)-ethylcarbamoyl]-ethyl}-2-(4-fluoro-phenyl)-propionamide], the inhibition constant (Ki) was less than 1 µM. In the case of `C[C@@H](CNc1cccc(F)c1F)NC(=O)[C@H](CC1CCCCC1)NC(=O)c1ccc(-c2cccc(F)c2)o1` [Compound 90, 5-(3-Fluoro-phenyl)-furan-2-carboxylic acid {2-cyclohexyl-1-(S)-[2-(2,3-difluoro-phenylamino)-1-(S)-methyl-ethylcarbamoyl]-ethyl}-amide], the Ki was less than 0.1 µM. On to `Cc1cccc(C(=O)N[C@@H](CC(C)C)C(=O)N[C@@H](CCC(N)=O)CN2CCc3cc(F)ccc32)c1` [Compound 44, (S,S)-N-{1-[3-Carbamoyl-1-(5-fluoro-2,3-dihydro-indol-1-ylmethyl)-propylcarbamoyl]-3-methyl-butyl}-3-methyl-benzamide], for which the inhibitory constant (Ki) is less than 0.1 µM. Next, `O=C(NCCN1CCc2cc(F)ccc21)[C@H](CC1CCCCC1)NS(=O)(=O)c1ccsc1` [Compound 248, (S)-3-Cyclohexyl-N-[2-(5-fluoro-2,3-dihydro-indol-1-yl)-ethyl]-2-(thiophene-3-sulfonylamino)-propionamide]: less than 1 µM; `C[C@@H](CNc1ccc2c(c1)OCO2)NC(=O)[C@H](CC1CCCCC1)NC(=O)c1ccc(-c2cccc(F)c2)o1` [Compound 85, 5-(3-Fluoro-phenyl)-furan-2-carboxylic acid {1-(S)-[2-(benzo[1,3]dioxol-5-ylamino)-1-(S)-methyl-ethylcarbamoyl]-2-cyclohexyl-ethyl}-amide]: less than 0.1 µM.

As to `O=C(NCCN1CCc2cc(F)ccc21)[C@H](CC1CCCCC1)NS(=O)(=O)c1ccc(Oc2ccccc2)cc1` [Compound 226, (S)-3-Cyclohexyl-N-[2-(5-fluoro-2,3-dihydro-indol-1-yl)-ethyl]-2-(4-phenoxy-benzenesulfonylamino)-propionamide], the inhibitory constant (Ki) was less than 0.1 µM. As for `COc1cccc(C(=O)N[C@@H](CCC2CCCCC2)C(=O)NCCN2CCc3ccc(F)cc32)c1` [Compound 10, (S)-N-{3-Cyclohexyl-1-[2-(6-fluoro-2,3-dihydro-indol-1-yl)-ethylcarbamoyl]-propyl}-3-methoxy-benzamide], the figure is less than 10 µM. As for `C[C@@H](CNc1ccc(OC(F)(F)F)cc1)NC(=O)[C@H](CC1CCCCC1)NC(=O)O[C@@H]1CCOC1` [Compound 188, {2-Cyclohexyl-1-(S)-[1-(S)-methyl-2-(4-trifluoromethoxy-phenylamino)-ethylcarbamoyl]-ethyl}-carbamic acid tetrahydrofuran-3-(R)-yl ester], the figure is less than 0.1 µM; as for `COc1cccc(C(=O)N[C@@H](CC(C)(C)C)C(=O)N[C@@H](COCc2ccccc2)CN2CCc3cc(F)ccc32)c1` [Compound 155, N-{1-(S)-[1-(R)-Benzyloxymethyl-2-(5-fluoro-2,3-dihydro-indol-1-yl)-ethylcarbamoyl]-3,3-dimethyl-butyl}-3-methoxy-benzamide], less than 0.1 µM; as for “(S)-3-Cyclohexyl-N-[2-(5-fluoro-2,3-dihydro-indol-1-yl)-ethyl]-2-(5-isoxazol-3-yl-thiophene-2-sulfonylamino)-propionamide [Compound 223]”, less than 1 µM. Consider `C[C@@H](CN1CCc2cc(F)ccc21)NC(=O)[C@H](CC1CCCCC1)NC(=O)OCc1ccccc1` [Compound 174, {2-Cyclohexyl-1-(S)-[2-(5-fluoro-2,3-dihydro-indol-1-yl)-1-(S)-methyl-ethylcarbamoyl]-ethyl}-carbamic acid benzyl ester], for which the Ki was less than 0.1 µM. As for `COc1ccc(-c2ccc(S(=O)(=O)N[C@@H](CC3CCCCC3)C(=O)NCCN3CCc4cc(F)ccc43)cc2)cc1` [Compound 238, (S)-3-Cyclohexyl-N-[2-(5-fluoro-2,3-dihydro-indol-1-yl)-ethyl]-2-(4′-methoxy-biphenyl-4-sulfonylamino)-propionamide], the Ki was less than 0.1 µM.

As for `C[C@@H](CNc1ccc(S(C)(=O)=O)cc1)NC(=O)[C@H](CC(C)(C)C)NC(=O)c1ccc(-c2cccc(F)c2)o1` [Compound 129, 5-(3-Fluoro-phenyl)-furan-2-carboxylic acid {1-(S)-[2-(4-methanesulfonyl-phenylamino)-1-(S)-methyl-ethylcarbamoyl]-3,3-dimethyl-butyl}-amide], the Ki is less than 0.1 µM.

For `Cc1nc(-c2ccc(S(=O)(=O)N[C@@H](CC3CCCCC3)C(=O)NCCN3CCc4cc(F)ccc43)s2)cs1` [Compound 237, (S)-3-Cyclohexyl-N-[2-(5-fluoro-2,3-dihydro-indol-1-yl)-ethyl]-2-[5-(2-methyl-thiazol-4-yl)-thiophene-2-sulfonylamino]-propionamide], the Ki is less than 0.1 µM.

Take `O=C(NC(C(=O)NC(CO)CN1CCc2cc(F)ccc21)c1ccc(Cl)cc1Cl)c1ccco1` [Compound 212, N-(S)-((3-(5-fluoroindolin-1-yl)-1-hydroxypropan-2-(R)-ylcarbamoyl)(2,4-dichlorophenyl)methyl) furan-2-carboxamide]: the Ki is less than 1 µM. As for `C[C@@H](CN1CCc2cc(F)ccc21)NC(=O)[C@H](CC(C)(C)C)NC(=O)Cc1nnn[nH]1` [Compound 179, 4,4-Dimethyl-2-(S)-(2-1H-tetrazol-5-yl-acetylamino)-pentanoic acid [2-(5-fluoro-2,3-dihydro-indol-1-yl)-1-(S)-methyl-ethyl]-amide], the figure is less than 1 µM. Next, `C[C@@H](CNc1ccc(OC(F)(F)F)cc1)NC(=O)[C@H](CC1CCCCC1)NC(=O)[C@H]1CCCO1` [Compound 30, Tetrahydrofuran-2-(R)-carboxylic acid {2-cyclohexyl-1-(S)-[1-(S)-methyl-2-(4-trifluoromethoxy-phenylamino)-ethylcarbamoyl]-ethyl}-amide]: less than 0.1 µM; `O=C(N[C@@H](CC1CCCC1)C(=O)NCCN1CCc2cc(F)ccc21)c1ccc(-c2cccc(C(F)(F)F)c2)o1` [Compound 200, N-((S)-1-(2-(5-fluoroindolin-1-yl)ethylcarbamoyl)-2-cyclopentylethyl)-5-(3-(trifluoromethyl)phenyl)furan-2-carboxamide]: less than 0.1 µM. As for `O=C(NCCN1CCc2cc(F)ccc21)[C@H](CC1CCCCC1)NS(=O)(=O)c1ccc(S(=O)(=O)c2ccccc2)s1` [Compound 256, (S)-2-(5-Benzenesulfonyl-thiophene-2-sulfonylamino)-3-cyclohexyl-N-[2-(5-fluoro-2,3-dihydro-indol-1-yl)-ethyl]-propionamide], the inhibitory constant (Ki) is less than 1 µM. Next, `C[C@@H](CNc1ccc(C(=N)N)cc1)NC(=O)C(NC(=O)c1ccc(OCc2ccccc2)cc1)c1ccc(Cl)cc1Cl` (mixture of isomers) [Compound 175, 4-Benzyloxy-N-(R,S)-{[2-(4-amidinophenylamino)-1-(S)-methyl-ethylcarbamoyl]-(2,4-dichloro-phenyl)-methyl}-benzamide]: less than 1 µM.
